Test system: human patients
Assay: Administration to human patients, efficacy as a cognition enhancer
Type: in vivo
Method: Compound X has active doses around 5-125 microgramme (μg) (calculated as free base). It has been found through administration to human patients that efficacy as a cognition enhancer may be obtained at daily doses below 0.01 mg/kg more particularly 0.003 mg/kg and below, for example 0.0001-0.003 mg/kg, such as 0.00035-0.003 mg/kg. 0.0007-0.003 mg/kg, 0.0001-0.0007 mg/kg or 0.00035-0.002 mg/kg.

CO/N=C(\C#N)[C@H]1CN2CCC1CC2.Cl [Compound X, [R-(Z)]-α-(methoxyimino)-α-(1-azabicyclo [2.2.2]oct-3-yl)acetonitrile monohydrochloride]
active doses (calculated as free base): 5 to 125 µg | daily doses at which efficacy as a cognition enhancer may be obtained (human patients, daily dose): below 0.01 mg/kg

Reference: patent publication US6468560B2, “Controlled release dosage form of [R-(Z)]-α-(methoxyimino)-α-(1-azabicyclo[2.2.2]oct-3yl) acetonitrile monohydrochloride” (SmithKline Beecham p.l.c., priority 1996, dated 2002)
